Here are results for three molecules from patent US11624095B2, “Method of quantifying HIV reservoirs by induced transcription based sequencing” (priority 2017, dated 2023).

The test system of test [1] is latent HIV proviruses in memory CD4+ T-cells of HIV-1-infected subjects. In words: EDITS assay, inducible HIV env RNA in resting memory cells after ex vivo activation. The class given is cell-based. An excerpt:
We developed a novel deep sequencing-based protocol (EDITS, Envelope Detection by Induced Transcription-based Sequencing) to measure RNA induction, capable of detecting inducible cell-associated HIV RNA. The EDITS Assay measures inducible HIV envelope RNA in infected cells, including patient-derived samples. The HIV envelope mRNA has been chosen because the splicing pattern covers a significant portion of the proviral genome, thus minimizing readouts from defective proviruses with large deletions (FIG. 1). Briefly, 1.25×10^6 resting memory cells from aviremic (<20 copies/ml) HIV-1-infected subjects are induced by one or more latency reversing agents (LRAs) and/or by engagement of the T-cell receptor (TCR).
FIG. 6 summarizes the protocol of the EDITS assay. Briefly, blood is collected from an HIV-infected individual and peripheral blood mononuclear cells (PBMCs) are purified. CD4^+ memory cells are negatively isolated using robotic magnetic bead isolation technology (Stemcell, 19157RF) and allowed to equilibrate in RPMI with 10% FBS, Primocin and 30 IU/ml of IL-2 overnight. 1.25 million cells are stimulated with one or more LRA (e.g., Concanavalin A) for 24 hours. […]
Fastq files are analyzed using a proprietary pipeline (bioinformatics tool) to not only quantify the amount of HIV-1 present in any given sample but also to determine viral diversity.

Test [2] has as its system HIV in purified CD4+ T-cells from HIV-1-infected men and women. Briefly: modified EDITS assay quantifying spreading viral infection (HIV RNA+ cells after Con A stimulation). The following applies: for number of HIV RNA positive cells per million: CD4+ memory cells stimulated 9 days with Con A in presence of 1 μM raltegravir; for spreading infection / HIV RNA induction: 300 pg/ml 17β-estradiol, 9 days; for spreading infection: absence of raltegravir, women compared to men (p=0.00052); for HIV RNA induction: women compared to men (p=0.00039). The test is classed as cell-based. An excerpt:
It is contemplated that the quantification of the latent HIV-1 can occur before, during, and after the course of a therapeutic regimen in order to determine the efficacy of a chosen therapeutic regimen. One way to assess the efficacy of the HIV-1 therapeutic is to compare the latent HIV-1 reactivation pre and post therapeutic administration. The amount of cell associated inducible HIV env RNA measured in the sample can then be compared to a control to determine the efficacy of the antiviral and/or LRAs. The control can be the amount of cell associated inducible HIV env RNA measured in infected cells prior to the administration of the one or more antiviral and/or latency reversing agents. In order to evaluate sex differences in CD4+ T-cells from male and female subjects, methods described herein can be modified to include an additional in vitro step allowing for the quantification of spreading viral infections in the presence of candidate agents. Therefore, in optional embodiments, purified CD4+ T-cells are stimulated with an HIV transcription inducing agent in the absence or presence of an antiretroviral agent to block spreading of HIV infection and a candidate agent. The amount of newly infected cells can be determined by measuring the increase in HIV RNA+ cells in the absence of the infection blocking agent compared to cells stimulated in the presence of the infection blocking agent.
The number of newly infected cells was determined, in accordance with the methods described herein, by measuring the HIV RNA+ cells in the absence of raltegravir after nine days. It was shown that the addition of 17β-estradiol blocked both HIV RNA induction and spreading infection in women compared to men, consistent with previous observations that the estrogen receptor-1 (ESR-1) can act as a repressor of HIV transcription.
CD4^+ T-cells were isolated from cryopreserved PBMCs and the frequencies of cells harboring total and integrated HIV-1 DNA (tHIV and iHIV) were measured relative to CD3 copy number. Cell associated (CA) unspliced (usHIV) RNA was quantified and multiply-spliced (msRNA) was measured using the identical semi-nested PCR with different primers. Low level viremia was quantified from seven milliliters of plasma with PCR amplification targeting a conserved, untranslated HIV-1 gag RNA sequence (the HMMCgag assay). Inducible HIV-1 RNA was measured using the TILDA assay; briefly, purified CD4^+ T-cells are stimulated maximally with PMA/ionomycin, serially diluted, lysed and HIV-1 msRNA measured with a two-step RT-PCR. Maximum likelihood estimates based on the number of positive wells are used to determine the frequency of cells harboring inducible HIV-1. A modified version of the EDITS assay was used to quantify spreading viral infections. Purified CD4^+ T-cells were stimulated with the mitogen Concanavalin A (Con A) in the absence or presence of 1 μM Raltegravir (to block spreading infection) and absence or presence of 300 pg/ml 17β-estradiol. Newly infected cells were determined after nine days as the increase in HIV RNA+ cells in the absence of Raltegravir.
As a complementary method to evaluate sex differences CD4^+ T-cells from a subset of men (n=6) and women (n=6) who underwent leukapheresis were evaluated for the level of inducible replication competent virus using a modified EDITS assay (FIG. 10). Purified CD4^+ memory cells were stimulated for 9 days to induce HIV transcription in the presence or absence of raltegravir and number of HIV RNA^+ cells was quantified by EDITS. […] In the absence of raltegravir, there were 348 RNA positive cells per million for the women and 457 RNA positive cells per million for the men, indicating spreading infection.

Setting [3] is: Con A stimulation, listed as estrogen.

Take Concanavalin A: the “efficiency of activation of RNA from proviruses” value in test [1] (strong LRAs such as TCR activation or mitogen activation, applicant's estimate) is “greater than 75%”.

With `Cc1nnc(C(=O)NC(C)(C)c2nc(C(=O)NCc3ccc(F)cc3)c(O)c(=O)n2C)o1` [raltegravir], in test [2] (1 μM raltegravir, 9 days culture, Con A stimulation), the viral spread entry is recorded as “blocked”. Also, the results for the “number of HIV RNA positive cells per million” value in test [2] (men (n=6)) and in test [2] (women (n=6)) were 80 RNA positive cells per million and 74 RNA positive cells per million, respectively.

For `C[C@]12CC[C@@H]3c4ccc(O)cc4CC[C@H]3[C@@H]1CC[C@@H]2O` [17β-estradiol], in test [2] (Con A stimulation), the spreading infection entry was “potently blocked” and the “HIV RNA induction” value was “potently blocked”. For the same molecule, in test [2] (setting [3]), the spreading infection entry is “potently blocked” and the “HIV RNA induction” value is listed as “potently blocked”. For the same molecule, in test [1] (samples activated ex vivo by TCR induction in presence and absence of Estradiol (FIG. 4)), the proviral reactivation entry was “potent inhibitor of proviral reactivation”.
